Data published in ChEMBL document CHEMBL5226302, “Small-Molecule Inhibitors Targeting the Canonical WNT Signaling Pathway for the Treatment of Cancer” (J Med Chem, 2021).
Values after ≈ are worked out from the molar mass of the structure shown.

Assays:
[1] = Inhibition of Wnt signalling pathway in HEK293 cells assessed growth inhibition of cells by luciferase assay; type: cell-based; details: Homo sapiens
[2] = tested on: HEK293; test: Antitumor activity against human HEK293 cells in CB17-SCID xenografted mouse model at 150 mg/kg relative to control; type: functional
[3] = tested on: HEK293; test: Antitumor activity against human HEK293 cells in CB17-SCID xenografted mouse model at 300 mg/kg relative to control; type: functional
[4] = target: T1, Catenin beta-1 (Homo sapiens, UniProt P35222)
T1 sequence (P35222 whole entry): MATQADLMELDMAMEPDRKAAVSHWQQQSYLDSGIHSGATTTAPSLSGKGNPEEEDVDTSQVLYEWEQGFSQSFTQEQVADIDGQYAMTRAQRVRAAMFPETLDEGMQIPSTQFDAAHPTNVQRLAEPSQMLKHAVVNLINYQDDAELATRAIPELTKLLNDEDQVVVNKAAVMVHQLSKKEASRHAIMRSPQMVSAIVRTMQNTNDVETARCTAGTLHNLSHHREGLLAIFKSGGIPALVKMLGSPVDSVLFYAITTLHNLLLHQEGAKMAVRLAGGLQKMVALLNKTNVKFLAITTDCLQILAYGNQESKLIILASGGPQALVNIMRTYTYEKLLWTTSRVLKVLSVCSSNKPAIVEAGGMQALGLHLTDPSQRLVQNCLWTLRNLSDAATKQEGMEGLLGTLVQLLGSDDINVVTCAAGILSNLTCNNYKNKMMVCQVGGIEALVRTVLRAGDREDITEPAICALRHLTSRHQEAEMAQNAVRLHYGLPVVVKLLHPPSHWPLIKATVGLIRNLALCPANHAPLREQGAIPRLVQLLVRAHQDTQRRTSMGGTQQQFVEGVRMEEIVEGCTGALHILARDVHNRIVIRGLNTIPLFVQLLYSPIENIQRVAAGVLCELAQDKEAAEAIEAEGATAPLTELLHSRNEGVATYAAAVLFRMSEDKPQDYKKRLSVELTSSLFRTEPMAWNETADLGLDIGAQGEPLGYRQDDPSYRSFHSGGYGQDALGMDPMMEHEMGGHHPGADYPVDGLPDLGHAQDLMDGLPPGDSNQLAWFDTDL

[5] = Half life in mouse plasma; type: ADME, cell-free
[6] = target: T2, Poly [ADP-ribose] polymerase tankyrase-2 (Homo sapiens, UniProt Q9H2K2); test: Inhibition of TNKS2 (unknown origin)
T2 sequence (Q9H2K2 whole entry): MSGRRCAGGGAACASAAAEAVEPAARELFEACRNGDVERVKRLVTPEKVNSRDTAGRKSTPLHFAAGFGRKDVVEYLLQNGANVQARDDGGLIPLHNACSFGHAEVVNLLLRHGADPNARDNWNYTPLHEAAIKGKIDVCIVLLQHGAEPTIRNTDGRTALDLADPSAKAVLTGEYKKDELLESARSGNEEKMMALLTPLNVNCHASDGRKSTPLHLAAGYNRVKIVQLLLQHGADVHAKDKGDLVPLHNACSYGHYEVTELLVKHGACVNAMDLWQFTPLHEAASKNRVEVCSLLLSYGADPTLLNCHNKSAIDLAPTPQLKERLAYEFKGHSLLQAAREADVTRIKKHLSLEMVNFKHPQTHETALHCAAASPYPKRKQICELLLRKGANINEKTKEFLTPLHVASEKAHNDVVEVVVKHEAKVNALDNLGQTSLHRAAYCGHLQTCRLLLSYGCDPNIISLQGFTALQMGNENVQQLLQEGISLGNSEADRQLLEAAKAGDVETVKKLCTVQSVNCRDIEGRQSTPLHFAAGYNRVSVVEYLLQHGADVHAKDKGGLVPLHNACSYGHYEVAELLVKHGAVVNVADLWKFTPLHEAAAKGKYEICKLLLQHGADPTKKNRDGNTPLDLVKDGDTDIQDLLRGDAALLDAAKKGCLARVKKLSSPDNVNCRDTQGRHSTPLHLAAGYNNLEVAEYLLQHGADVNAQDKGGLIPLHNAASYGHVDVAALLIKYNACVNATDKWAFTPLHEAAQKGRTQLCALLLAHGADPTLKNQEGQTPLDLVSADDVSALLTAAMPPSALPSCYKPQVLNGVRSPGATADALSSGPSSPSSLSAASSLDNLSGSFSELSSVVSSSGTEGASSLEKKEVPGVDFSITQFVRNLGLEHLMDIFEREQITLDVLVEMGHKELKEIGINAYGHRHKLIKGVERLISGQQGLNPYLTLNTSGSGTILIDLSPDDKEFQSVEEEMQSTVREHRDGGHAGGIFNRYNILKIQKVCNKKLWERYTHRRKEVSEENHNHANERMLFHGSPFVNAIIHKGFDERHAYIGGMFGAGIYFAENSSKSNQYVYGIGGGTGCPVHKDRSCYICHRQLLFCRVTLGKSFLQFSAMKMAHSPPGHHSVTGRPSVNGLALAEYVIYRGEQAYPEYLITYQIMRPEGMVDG

[7] = tested on: DLD-1; test: Antiproliferative activity against human DLD-1 cells assessed as reduction in cell viability by cell proliferation assay; type: functional, cell-based
[8] = Clearance in human liver microsomes; type: ADME, Microsome; details: read-out: CLH
[9] = Clearance in mouse liver microsomes; type: ADME, Microsome; details: read-out: CLH
[10] = tested on: MCF7; test: Antiproliferative activity against human MCF7 cells by MTT assay; type: functional, cell-based
[11] = Efflux ratio of apparent permeability in human Caco-2 cells; type: ADME, cell-based
[12] = Oral bioavailability in rat at 30 mg/kg; type: ADME, organism-based; details: in vivo
[13] = tested on: COLO 320; test: Antitumor activity against human COLO 320 cells xenografted mouse model assessed as tumor growth inhibition at 300 mg/kg relative to control; type: functional; details: read-out: TGI
[14] = tested on: COLO 320; test: Antiproliferative activity against human COLO 320 assessed as growth inhibition measured after 24 hrs; type: functional
[15] = Solubility of compound at pH 7.4; type: physicochemical; details: buffer
[16] = target: Catenin beta-1/Transcription factor 7 (Homo sapiens, UniProt P35222+P36402); test: Inhibition of beta catenin/TCF (unknown origin) by immunoprecipitation method; type: protein assay
[17] = tested on: LNCaP C4-2B; test: Antiproliferative activity against human LNCaP C4-2B cells assessed as inhibition of cell growth by Celltiter-Glo assay; type: functional, cell-based
[18] = target: T3, Catenin beta-1/BCL9L (Homo sapiens, UniProt P35222+Q86UU0); test: Binding affinity to beta catenin (unknown origin) to BCL assessed as inhibition constant by alpha screening assay; type: protein-complex assay
T3 sequence (P35222 whole entry): T1 sequence (P35222 whole entry)
T3 sequence (Q86UU0 whole entry): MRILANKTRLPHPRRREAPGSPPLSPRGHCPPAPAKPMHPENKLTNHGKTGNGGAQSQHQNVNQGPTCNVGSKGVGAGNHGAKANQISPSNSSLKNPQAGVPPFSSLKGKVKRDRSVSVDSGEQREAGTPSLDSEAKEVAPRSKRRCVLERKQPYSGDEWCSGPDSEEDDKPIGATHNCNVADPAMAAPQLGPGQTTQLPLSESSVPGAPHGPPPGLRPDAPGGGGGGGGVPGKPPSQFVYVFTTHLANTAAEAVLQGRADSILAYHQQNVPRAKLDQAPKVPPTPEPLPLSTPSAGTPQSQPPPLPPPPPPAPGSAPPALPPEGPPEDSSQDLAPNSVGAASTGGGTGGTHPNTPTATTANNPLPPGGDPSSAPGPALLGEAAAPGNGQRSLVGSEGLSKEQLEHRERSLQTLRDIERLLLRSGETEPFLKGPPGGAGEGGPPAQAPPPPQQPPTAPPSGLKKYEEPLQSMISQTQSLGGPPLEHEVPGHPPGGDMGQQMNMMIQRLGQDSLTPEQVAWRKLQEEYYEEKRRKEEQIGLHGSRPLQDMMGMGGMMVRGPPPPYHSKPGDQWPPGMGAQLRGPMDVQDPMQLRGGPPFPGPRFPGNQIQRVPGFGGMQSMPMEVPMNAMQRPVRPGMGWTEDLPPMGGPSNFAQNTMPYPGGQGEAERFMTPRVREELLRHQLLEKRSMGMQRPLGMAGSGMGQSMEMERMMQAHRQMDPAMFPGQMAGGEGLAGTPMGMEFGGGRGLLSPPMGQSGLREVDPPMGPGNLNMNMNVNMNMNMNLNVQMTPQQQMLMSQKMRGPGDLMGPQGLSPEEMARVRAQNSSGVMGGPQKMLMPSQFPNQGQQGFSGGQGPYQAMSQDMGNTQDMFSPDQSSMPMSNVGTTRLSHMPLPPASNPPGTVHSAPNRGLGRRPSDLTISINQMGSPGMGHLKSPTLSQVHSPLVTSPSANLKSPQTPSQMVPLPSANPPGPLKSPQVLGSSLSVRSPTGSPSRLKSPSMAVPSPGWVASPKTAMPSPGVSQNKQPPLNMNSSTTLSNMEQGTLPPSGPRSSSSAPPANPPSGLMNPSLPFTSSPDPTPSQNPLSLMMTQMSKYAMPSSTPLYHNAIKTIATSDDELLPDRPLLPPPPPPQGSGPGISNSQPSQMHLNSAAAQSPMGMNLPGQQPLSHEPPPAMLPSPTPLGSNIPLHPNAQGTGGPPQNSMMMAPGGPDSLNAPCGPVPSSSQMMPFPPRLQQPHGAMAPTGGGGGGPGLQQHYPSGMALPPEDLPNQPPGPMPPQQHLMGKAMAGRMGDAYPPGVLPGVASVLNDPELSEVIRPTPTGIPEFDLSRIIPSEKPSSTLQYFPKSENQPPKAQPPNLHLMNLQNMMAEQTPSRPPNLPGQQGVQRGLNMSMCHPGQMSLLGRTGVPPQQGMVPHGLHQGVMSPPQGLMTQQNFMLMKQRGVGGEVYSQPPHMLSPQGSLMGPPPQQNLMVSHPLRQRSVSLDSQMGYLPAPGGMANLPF

[19] = Oral bioavailability in rat at 5 mg/kg; type: ADME, organism-based; details: in vivo
[20] = target: T1, Catenin beta-1; test: Binding affinity to human beta catenin assessed as dissociation constant
[21] = Inhibition of beta catenin/APC (unknown origin); parameters: species or system Homo sapiens
[22] = Inhibition of Wnt2 signalling in human SW480 cells assessed as reduction in cyclin D1 expression […] measured after 24 hrs by western blot analysis; type: cell-based; details: SW480, 24 h
[23] = target: T1, Catenin beta-1; test: Binding affinity to beta catenin (unknown origin) assessed as dissociation constant by VP-ITC method
[24] = target: Catenin beta-1 (Homo sapiens, UniProt P35222); test: Binding affinity to human beta catenin double mutant assessed as dissociation constant by alpha assay

Chain of Catenin beta-1/Transcription factor 7 (P36402 whole entry, one chain of several): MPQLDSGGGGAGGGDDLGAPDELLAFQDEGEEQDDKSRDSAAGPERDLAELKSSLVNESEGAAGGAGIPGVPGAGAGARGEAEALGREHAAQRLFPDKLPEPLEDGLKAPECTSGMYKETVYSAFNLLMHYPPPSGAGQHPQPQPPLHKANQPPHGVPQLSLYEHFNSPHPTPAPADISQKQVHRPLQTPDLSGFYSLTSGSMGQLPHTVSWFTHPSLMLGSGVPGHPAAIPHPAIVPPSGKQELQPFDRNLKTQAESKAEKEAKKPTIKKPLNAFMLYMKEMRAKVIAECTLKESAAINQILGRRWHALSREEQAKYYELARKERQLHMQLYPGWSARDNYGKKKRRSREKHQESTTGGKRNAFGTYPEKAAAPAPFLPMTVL

## Cc1cc(/C=C/c2ccc3cc(N(C)C)ccc3[n+]2C)c(C)n1-c1ccccc1
[1]
  IC50: 10 nM

## COc1ccc(-n2c(SCc3nc(-c4ccc(C)cc4)no3)nnc2-c2ccncc2)cc1
[2]
  Activity: 33%
[3]
  Activity: 35%

## On1ncc2cc(CCc3nn[nH]n3)ccc21
[4]
  IC50: 500 nM

## CC1(C)OC(=O)N(c2ccc(C(=O)Nc3cccc4cccnc34)cc2)[C@H]1c1ccccc1
[5]
  half-life: 5.2 h

## CC1(C)OC(=O)N([C@H]2CC[C@H](c3cnc(N)c(-c4ncccn4)c3)CC2)[C@H]1c1ccccc1
[6]
  IC50: 22 nM
[7]
  IC50: 3000 nM

## CC1(C)OC(=O)N(c2ccc(-c3cnc(N)c(-c4ncccn4)c3)cc2)[C@H]1c1ccccc1
[8]
  microsomal CLint: 33 µL/min/mg
[9]
  microsomal CLint: 48 µL/min/mg

## Cc1cccc2c(=O)[nH]c3c(c12)COC(C(C)(C)CO)C3 (centres undefined)
[10]
  EC50: 7 nM

## Cc1cc(N2C[C@@H](C)N[C@@H](C)C2)ncc1-c1ccc(-c2nc3c(ccn3C)c(=O)[nH]2)cc1
[11]
  efflux ratio: 2.7

## O=c1[nH]c(N2CCC3(CC2)CN(CCO)c2cc(F)cc(F)c23)nc2c1CCCC2
[12]
  bioavailability: 60%
[13]
  inhibition in vivo at 300 mg/kg: 52%

## C[C@@H]1CN(c2cc(F)c3c(c2)N(C)C(=O)C32CCN(c3nc4c(c(=O)[nH]3)CCCN4C)CC2)C[C@H](C)O1
[14]
  GI50: 230 nM

## COc1ccccc1N1CCN(c2nc3c(c(=O)[nH]2)CCCC3)CC1
[15]
  solubility: 72 µg/mL (≈ 211 µM)

## COc1ccc([C@@H](C)N2CC(=O)N[C@H](C)C(=O)CN(CCc3ccccc3Oc3ccccc3)CC(=O)N(c3cc(OC)cc(OC)c3)CC(=O)N(CCCOC(C)C)CC(=O)N([C@H](C)c3ccc(OC)cc3)CC2=O)cc1
[16]
  IC50: 10000 nM
[17]
  IC50: 195 nM

## O=C(c1cc(F)cc(N2CCNCC2)c1)N1CCN(C(=O)c2ccc(O[C@@H]3CCNC3)c(C3CCCCC3)c2)CC1
[18]
  Ki: 5200 nM

## COCCNc1cc(C)c(-c2ccc(-c3nc4c(CO)cccc4c(=O)[nH]3)cc2)cn1
[19]
  bioavailability: 18%

## CC(=O)N[C@@H](CCC(=O)O)CN(CC(=O)N[C@@H](CCCNC(=N)N)CN(CC(=O)N[C@@H](CCCNC(=N)N)CN(CC(=O)NC(CC(C)C)CN(CC(=O)N[C@H](CN(CC(=O)N[C@@H](CC(C)C)CN(CC(=O)N[C@@H](CCCNC(=N)N)CN(CC(=O)N[C@@H](C)CN(CC(=O)N[C@@H](CC(C)C)CN(CC(=O)N[C@@H](CC(C)C)CN(CC(N)=O)SCc1ccccc1)S(=O)(=O)CC(C)C)S(C)(=O)=O)S(=O)(=O)CC(C)C)S(=O)(=O)CCN)S(=O)(=O)CC(C)C)C(C)O)S(=O)(=O)CCN)S(C)(=O)=O)S(C)(=O)=O)S(=O)(=O)CCN (some centres undefined)
[20]
  Kd: 160 nM

## CCOC(=O)CC[C@H](NC(=O)[C@H](CC(=O)OCC)NC(=O)[C@H](Cc1ccc2ccccc2c1)NC(=O)Cc1cc2cc(Cl)ccc2[nH]1)C(=O)OC
[21]
  IC50: 28700 nM
[22]
  IC50: 10800 nM

## CC[C@H](C)[C@H]1NC(=O)[C@](C)(NC(=O)[C@H](CCC(N)=O)NC(=O)[C@@H]2CCCN2C(=O)[C@H](CC(N)=O)NC(=O)[C@H](CCC(=O)O)NC(=O)CCNC(=S)Nc2ccc3c(c2)C(=O)OC32c3ccc(O)cc3Oc3cc(O)ccc32)CCC/C=C/CCC[C@](C)(C(=O)N[C@@H](Cc2cnc[nH]2)C(=O)N[C@H](C(=O)N[C@@H](CCC(N)=O)C(=O)N[C@@H](CCCNC(=N)N)C(=O)N[C@H](C(=O)N[C@@H](CCSC)C(N)=O)C(C)C)C(C)C)NC(=O)[C@H](CC(=O)O)NC(=O)[C@H](C(C)(C)C)NC1=O
[23]
  Kd: 60 nM

## O=C(Nc1ccc(-c2ccc(F)cc2)c(O[C@H]2CCNC2)c1)c1ccc(O[C@H]2CCNC2)c(-c2ccc(F)c(F)c2)c1
[24]
  Kd: 97 nM
